Experimental data reported in PubChem BioAssay AID330 (DTP/NCI, 2004).
Where “and” joins values, the source holds several entries; their conditions need not be identical. Identical values can stand only once. Inconclusive results and toxic doses are left out. Peptide text beside a SMILES is read from it.

System: P388 leukemia ip, CD2F1 mice, survival T/C
Test: NCI In Vivo Anticancer Drug Screen. Data for tumor model P388 Leukemia (intraperitoneal) in CD2F1 (CDF1) mice
Settings: endpoint: median survival time, higher = longer survival
Procedure, shortened: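 Mice carrying the transplanted tumor received test compound or vehicle. Survival was recorded in each group, and the value is the treated-group measurement divided by that of the vehicle-treated control group.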

[1] = dose: 50.0 mg/kg/injection, schedule: Q01DX005 (ip), vehicle: saline with Tween-80
[2] = dose: 200.0 mg/kg/injection, schedule: Q01DX005 (ip), vehicle: saline with Tween-80
[3] = dose: 25.0 mg/kg/injection, schedule: Q01DX009 (ip), vehicle: saline with Tween-80
[4] = dose: 50.0 mg/kg/injection, schedule: Q01DX009 (ip), vehicle: saline with Tween-80
[5] = dose: 100.0 mg/kg/injection, schedule: Q01DX009 (ip), vehicle: saline with Tween-80
[6] = dose: 100.0 mg/kg/injection, schedule: Q01DX001 (ip), vehicle: Klucel (hydroxypropylcellulose) (HPC)
[7] = dose: 200.0 mg/kg/injection, schedule: Q01DX001 (ip), vehicle: Klucel (hydroxypropylcellulose) (HPC)
[8] = dose: 50.0 mg/kg/injection, schedule: Q01DX005 (ip), vehicle: Klucel (hydroxypropylcellulose) (HPC)
[9] = dose: 100.0 mg/kg/injection, schedule: Q01DX005 (ip), vehicle: Klucel (hydroxypropylcellulose) (HPC)
[10] = dose: 200.0 mg/kg/injection, schedule: Q01DX005 (ip), vehicle: Klucel (hydroxypropylcellulose) (HPC)

SMILES: CN1c2ccccc2S(=O)(=O)n2c(COc3ccccc3)nnc21
- T/C (dose: 12.5 mg/kg/injection, schedule: Q01DX005 (ip), vehicle: saline with Tween-80): 97 % of control
- T/C (dose: 25.0 mg/kg/injection, schedule: Q01DX005 (ip), vehicle: saline with Tween-80): 97 % of control
- T/C [1]: 100 % of control and 91 % of control
- T/C [2]: 88 % of control

SMILES: CC(C)(C)N(OC(=O)c1ccc([N+](=O)[O-])cc1)c1ccccc1
- T/C [3]: 98 % of control
- T/C [4]: 97 % of control
- T/C [5]: 95 % of control

SMILES: COc1ccc(NS(=O)(=O)c2ccc(NCc3c4ccccc4nc4cc(Cl)ccc34)cc2)nn1
- T/C (dose: 60.0 mg/kg/injection, schedule: Q01DX005 (ip), vehicle: saline with Tween-80): 98 % of control
- T/C (dose: 120.0 mg/kg/injection, schedule: Q01DX005 (ip), vehicle: saline with Tween-80): 94 % of control
- T/C (dose: 240.0 mg/kg/injection, schedule: Q01DX005 (ip), vehicle: saline with Tween-80): 94 % of control

SMILES: Cc1[nH]c2cc(Br)c(Br)cc2c1/C=N/NC(N)=S
- T/C (dose: 50.0 mg/kg/injection, schedule: Q01DX001 (ip), vehicle: Klucel (hydroxypropylcellulose) (HPC)): 100 % of control
- T/C [6]: 96 % of control
- T/C [7]: 92 % of control

SMILES: Cn1nnnc1-c1ccc(C(=O)O)cc1
- T/C (dose: 25.0 mg/kg/injection, schedule: Q01DX005 (ip), vehicle: Klucel (hydroxypropylcellulose) (HPC)): 102 % of control
- T/C [8]: 102 % of control and 91 % of control
- T/C [9]: 96 % of control
- T/C [10]: 93 % of control

SMILES: OCC(O)C(O)C(O)C(/C=N\Nc1ccccc1)=N/Nc1ccccc1 (stereo not given)
- T/C (dose: 100.0 mg/kg/injection, schedule: Q04DX002 (ip), vehicle: saline): 100 % of control
- T/C (dose: 200.0 mg/kg/injection, schedule: Q04DX002 (ip), vehicle: saline): 97 % of control
- T/C (dose: 400.0 mg/kg/injection, schedule: Q04DX002 (ip), vehicle: saline): 102 % of control

SMILES: O=C(Nc1cnns1)c1ccccc1
- T/C (dose: 12.5 mg/kg/injection, schedule: Q01DX009 (ip), vehicle: other): 105 % of control
- T/C (dose: 25.0 mg/kg/injection, schedule: Q01DX009 (ip), vehicle: other): 99 % of control
- T/C (dose: 50.0 mg/kg/injection, schedule: Q01DX009 (ip), vehicle: other): 102 % of control
- T/C (dose: 100.0 mg/kg/injection, schedule: Q01DX009 (ip), vehicle: other): 105 % of control
- T/C (dose: 200.0 mg/kg/injection, schedule: Q01DX009 (ip), vehicle: other): 89 % of control

SMILES: C=C1C(=O)OC2/C=C(\C)C(OC(C)=O)/C=C\C(C)(O)CC(OC(=O)/C(C)=C/C)C12 (stereo not given)
- T/C (dose: 10.0 mg/kg/injection, schedule: Q01DX009 (ip), vehicle: saline with Tween-80): 105 % of control
- T/C (dose: 20.0 mg/kg/injection, schedule: Q01DX009 (ip), vehicle: saline with Tween-80): 99 % of control
- T/C (dose: 40.0 mg/kg/injection, schedule: Q01DX009 (ip), vehicle: saline with Tween-80): 110 % of control
- T/C (dose: 80.0 mg/kg/injection, schedule: Q01DX009 (ip), vehicle: saline with Tween-80): 115 % of control

SMILES: CCC(C)C(NC(=O)C(N)CCCN=C(N)N)C(=O)O (stereo not drawn) (H-Arg-Ile-OH; configuration not given here)
- T/C [8]: 98 % of control
- T/C [9]: 100 % of control
- T/C [10]: 101 % of control

SMILES: COc1ccc(C(O)(C2CC2)C2CC2)cc1
- T/C [6]: 98 % of control
- T/C [7]: 94 % of control
- T/C (dose: 400.0 mg/kg/injection, schedule: Q01DX001 (ip), vehicle: Klucel (hydroxypropylcellulose) (HPC)): 98 % of control

SMILES: Cc1nc2nc3n(c(=O)c2nc1C)CCS3
- T/C (dose: 100.0 mg/kg/injection, schedule: Q01DX001 (ip), vehicle: saline): 103 % of control
- T/C (dose: 200.0 mg/kg/injection, schedule: Q01DX001 (ip), vehicle: saline): 108 % of control
- T/C (dose: 400.0 mg/kg/injection, schedule: Q01DX001 (ip), vehicle: saline): 102 % of control

SMILES: ClC(Cl)CN(Cc1ccccc1)c1ncc[nH]1
- T/C (dose: 6.25 mg/kg/injection, schedule: Q01DX001 (ip), vehicle: saline): 105 % of control
- T/C (dose: 12.5 mg/kg/injection, schedule: Q01DX001 (ip), vehicle: saline): 104 % of control
- T/C (dose: 25.0 mg/kg/injection, schedule: Q01DX001 (ip), vehicle: saline): 105 % of control

SMILES: CC/C(=C(\c1ccccc1)c1ccc(OCCNC)cc1)c1ccccc1
- T/C (dose: 15.0 mg/kg/injection, schedule: Q01DX005 (ip), vehicle: Klucel (hydroxypropylcellulose) (HPC)): 98 % of control
- T/C (dose: 30.0 mg/kg/injection, schedule: Q01DX005 (ip), vehicle: Klucel (hydroxypropylcellulose) (HPC)): 88 % of control
- T/C (dose: 60.0 mg/kg/injection, schedule: Q01DX005 (ip), vehicle: Klucel (hydroxypropylcellulose) (HPC)): 92 % of control

SMILES: CCCNC1=C(C)C(=O)C2=C(C1=O)[C@H](COC(N)=O)[C@]1(OC)[C@@H]3N[C@@H]3CN21
- T/C (dose: 6.25 mg/kg/injection, schedule: Q01DX009 (ip), vehicle: saline sonified): 86 % of control
- T/C (dose: 12.5 mg/kg/injection, schedule: Q04DX003 (ip), vehicle: saline with Tween-80): 86 % of control

SMILES: CC[C@@]1(O)C[C@H](OC2CC(N(C)C)C(OC3CC4OC5CC(=O)C(C)OC5OC4C(C)O3)C(C)O2)c2c(cc3c(c2O)C(=O)c2c(O)cccc2C3=O)[C@H]1C(=O)OC (stereo not given in full)
- T/C (dose: 0.12 mg/kg/injection, schedule: Q01DX009 (ip), vehicle: water): 117 % of control
- T/C (dose: 0.25 mg/kg/injection, schedule: Q01DX009 (ip), vehicle: water): 115 % of control
- T/C (dose: 0.5 mg/kg/injection, schedule: Q01DX009 (ip), vehicle: water): 110 % of control
- T/C (dose: 1.0 mg/kg/injection, schedule: Q01DX009 (ip), vehicle: water): 110 % of control
- T/C (dose: 4.0 mg/kg/injection, schedule: Q01DX009 (ip), vehicle: water): 162 % of control

SMILES: O=S1(=O)CCC(c2ccccc2)C1 (stereo not given)
- T/C (dose: 12.5 mg/kg/injection, schedule: Q01DX009 (ip), vehicle: saline with Tween-80): 100 % of control
- T/C [3]: 105 % of control
- T/C [4]: 97 % of control

SMILES: O=C1CC(=O)N(C2CCCCC2)C(=O)N1c1ccccc1S(=O)(=O)Oc1ccccc1
- T/C [1]: 103 % of control
- T/C (dose: 100.0 mg/kg/injection, schedule: Q01DX005 (ip), vehicle: saline with Tween-80): 101 % of control
- T/C [2]: 103 % of control

SMILES: C/C=C(/C)C(=O)OC1CC(C)=C2C(=O)C=C(C)C2C2OC(=O)C(C)(OC(=O)/C(C)=C\C)C12 (stereo not given)
- T/C (dose: 4.0 mg/kg/injection, schedule: Q01DX009 (ip), vehicle: Klucel (hydroxypropylcellulose) (HPC)): 102 % of control
- T/C (dose: 8.0 mg/kg/injection, schedule: Q01DX009 (ip), vehicle: Klucel (hydroxypropylcellulose) (HPC)): 102 % of control
- T/C (dose: 16.0 mg/kg/injection, schedule: Q01DX009 (ip), vehicle: Klucel (hydroxypropylcellulose) (HPC)): 96 % of control
- T/C (dose: 32.0 mg/kg/injection, schedule: Q01DX009 (ip), vehicle: Klucel (hydroxypropylcellulose) (HPC)): 93 % of control

SMILES: CCOc1ccc2nc3cc(N=Nc4c(C)c(CN(CC)CC)cc(C)c4O)ccc3c(N)c2c1
- T/C [4]: 108 % of control
- T/C [5]: 100 % of control
- T/C (dose: 200.0 mg/kg/injection, schedule: Q01DX009 (ip), vehicle: saline with Tween-80): 106 % of control

SMILES: Nc1ccn(C2OC(C(OC3OC(CO)C(O)C(N)C3O)C(O)C(O)C(O)C(O)CO)C(N)C(O)C2O)c(=O)n1 (stereo not given)
- T/C (dose: 0.1 mg/kg/injection, schedule: Q01DX005 (ip), vehicle: saline): 100 % of control
- T/C (dose: 0.2 mg/kg/injection, schedule: Q01DX005 (ip), vehicle: saline): 102 % of control
- T/C (dose: 0.4 mg/kg/injection, schedule: Q01DX005 (ip), vehicle: saline): 107 % of control
- T/C (dose: 0.8 mg/kg/injection, schedule: Q01DX005 (ip), vehicle: saline): 102 % of control

SMILES: CC(O)[C@H]1CC[C@H]2[C@@H]3CC(=O)[C@H]4C[C@H](O)[C@H](O)C[C@]4(C)[C@H]3CC[C@]12C (stereo not given in full)
- T/C (dose: 100.0 mg/kg/injection, schedule: Q04DX002 (ip), vehicle: saline with Tween-80): 91 % of control
- T/C (dose: 200.0 mg/kg/injection, schedule: Q04DX002 (ip), vehicle: saline with Tween-80): 90 % of control
- T/C (dose: 400.0 mg/kg/injection, schedule: Q04DX002 (ip), vehicle: saline with Tween-80): 90 % of control

SMILES: CC(=O)Nn1cnc2ccccc2c1=O
- T/C (dose: 25.0 mg/kg/injection, schedule: Q04DX003 (ip), vehicle: saline with Tween-80): 97 % of control
- T/C (dose: 50.0 mg/kg/injection, schedule: Q04DX003 (ip), vehicle: saline with Tween-80): 90 % of control
- T/C (dose: 100.0 mg/kg/injection, schedule: Q04DX003 (ip), vehicle: saline with Tween-80): 93 % of control
- T/C (dose: 200.0 mg/kg/injection, schedule: Q04DX003 (ip), vehicle: saline with Tween-80): 101 % of control
